Experiments:
[1] = target: T1, HDAC6 human recombinant (Homo sapiens, UniProt Q9UBN7); test: HDAC enzyme activity inhibition (in vitro), HDAC6 assay; type: biochemical; details: samples at 0.1, 1, 10, 100 and 1000 nM; 37° C. 60 minutes; fluorescence Ex 390, Em 460; read-out: HDAC6 IC50
T1 construct: purchased Calbiochem 382180
T1 sequence (Q9UBN7 1-1215): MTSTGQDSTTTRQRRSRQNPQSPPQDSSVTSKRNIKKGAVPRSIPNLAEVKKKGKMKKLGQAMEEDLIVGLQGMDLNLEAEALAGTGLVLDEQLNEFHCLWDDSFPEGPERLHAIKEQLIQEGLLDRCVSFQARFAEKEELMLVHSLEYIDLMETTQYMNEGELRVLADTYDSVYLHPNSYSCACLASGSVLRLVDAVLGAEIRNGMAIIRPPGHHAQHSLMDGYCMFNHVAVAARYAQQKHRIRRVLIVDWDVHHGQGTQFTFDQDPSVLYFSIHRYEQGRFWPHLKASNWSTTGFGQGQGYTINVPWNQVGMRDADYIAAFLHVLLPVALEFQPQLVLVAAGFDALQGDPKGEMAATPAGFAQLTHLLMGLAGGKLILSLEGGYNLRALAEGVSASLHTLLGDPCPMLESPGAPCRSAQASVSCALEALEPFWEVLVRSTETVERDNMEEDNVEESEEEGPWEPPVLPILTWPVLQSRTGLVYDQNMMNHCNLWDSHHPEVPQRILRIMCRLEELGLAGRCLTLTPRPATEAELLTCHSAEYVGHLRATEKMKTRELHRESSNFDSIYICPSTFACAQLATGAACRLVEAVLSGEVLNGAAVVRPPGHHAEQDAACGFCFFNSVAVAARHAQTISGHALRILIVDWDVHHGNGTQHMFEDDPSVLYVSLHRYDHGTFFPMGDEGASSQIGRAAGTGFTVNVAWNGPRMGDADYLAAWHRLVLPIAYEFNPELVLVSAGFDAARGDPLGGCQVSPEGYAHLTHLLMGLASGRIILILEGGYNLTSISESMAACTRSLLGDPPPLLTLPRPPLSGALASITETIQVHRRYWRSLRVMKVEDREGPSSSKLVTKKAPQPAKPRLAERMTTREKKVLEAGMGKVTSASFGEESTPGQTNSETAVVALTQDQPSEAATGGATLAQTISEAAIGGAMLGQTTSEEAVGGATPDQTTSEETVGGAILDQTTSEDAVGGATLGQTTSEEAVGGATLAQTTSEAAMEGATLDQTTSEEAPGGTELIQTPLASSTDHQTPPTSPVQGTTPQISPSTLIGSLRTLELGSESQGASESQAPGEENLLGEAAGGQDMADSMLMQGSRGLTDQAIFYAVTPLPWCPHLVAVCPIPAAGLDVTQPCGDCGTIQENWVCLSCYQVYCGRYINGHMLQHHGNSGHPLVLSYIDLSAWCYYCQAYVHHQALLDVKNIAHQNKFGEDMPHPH
Summary of the method: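 HDAC6 human recombinant enzyme with fluorimetric substrate; […]. Reaction 60 min at 37° C, then developer 30 min at 37° C; fluorescence read at Ex 390/Em 460.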

[2] = target: T2, HDAC1 (Homo sapiens, UniProt Q13547); test: HDAC enzyme activity inhibition (in vitro), HDAC1 Fluorimetric Drug Discovery Assay Kit; type: biochemical; details: samples at 100, 1000 and 10000 nM; 37° C. 60 minutes; fluorescence Ex 390, Em 460; read-out: HDAC1 IC50
T2 construct: purchased Enzolifesciences BML-AK511
Summary of the method: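 HDAC1 was tested at 100, 1000 and 10000 nM and recombinant human HDAC6 at 0.1, 1, 10, 100 and 1000 nM. Enzyme reactions ran 60 min at 37° C, then developer was added for 30 min at 37° C, and fluorescence (Ex 390, Em 460) was read.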

T2 sequence (Q13547 whole entry): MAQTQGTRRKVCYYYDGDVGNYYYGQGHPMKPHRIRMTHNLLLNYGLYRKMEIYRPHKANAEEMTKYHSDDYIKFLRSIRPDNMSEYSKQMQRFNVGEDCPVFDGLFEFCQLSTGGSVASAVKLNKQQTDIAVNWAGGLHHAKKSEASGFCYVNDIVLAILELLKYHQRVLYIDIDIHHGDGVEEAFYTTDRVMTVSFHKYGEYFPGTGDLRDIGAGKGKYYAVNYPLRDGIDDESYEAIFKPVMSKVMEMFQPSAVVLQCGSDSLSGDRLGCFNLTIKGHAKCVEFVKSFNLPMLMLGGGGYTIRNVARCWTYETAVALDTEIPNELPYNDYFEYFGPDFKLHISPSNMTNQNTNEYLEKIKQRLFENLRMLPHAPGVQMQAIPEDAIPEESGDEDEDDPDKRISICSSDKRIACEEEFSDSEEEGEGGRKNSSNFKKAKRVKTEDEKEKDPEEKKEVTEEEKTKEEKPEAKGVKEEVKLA

SMILES: Cc1ccc(-c2ccc3c(c2)n(C2CCN(C)CC2)c(=O)n3Cc2ccc(-c3nnc(C(F)F)o3)cc2F)o1 [Compound 163, 1-(4-(5-(difluoromethyl)-1,3,4-oxadiazole-2-yl)-2-fluorobenzyl)-5-(5-methylfuran-2-yl)-3-(1-methylpiperidine-4-yl)-1,3-dihydro-2H-benzo[d]imidazole-2-one]
- IC50 [1]: 91 nM
- IC50 [2]: > 10000 nM

SMILES: COc1ccc(-c2ccc3c(c2)n(C2CCN(C)CC2)c(=O)n3Cc2ccc(-c3nnc(C(F)F)o3)cc2F)cn1 [Compound 164, 1-(4-(5-(difluoromethyl)-1,3,4-oxadiazole-2-yl)-2-fluorobenzyl)-5-(6-methoxypyridine-3-yl)-3-(1-methylpiperidine-4-yl)-1,3-dihydro-2H-benzo[d]imidazole-2-one]
- IC50 [1]: 61 nM
- IC50 [2]: > 10000 nM

SMILES: Cn1c(=O)n(Cc2ccc(-c3nnc(C(F)F)o3)cn2)c2cc(F)c(-c3cccnc3)cc21 [Compound 165, 1-((5-(5-(difluoromethyl)-1,3,4-oxadiazole-2-yl)pyridine-2-yl)methyl)-6-fluoro-3-methy 1-5-(pyridine-3-yl)-1,3-dihydro-2H-benzo[d]imidazole-2-one]
- IC50 [1]: 10 nM
- IC50 [2]: > 10000 nM

SMILES: Cn1c(=O)n(Cc2ccc(-c3nnc(C(F)F)o3)cn2)c2cc(F)c(-c3cccc(F)c3)cc21 [Compound 166, 1-((5-(5-(difluoromethyl)-1,3,4-oxadiazole-2-yl)pyridine-2-yl)methyl)-6-fluoro-5-(3-fluorophenyl)-3-methyl-1,3-dihydro-2H-benzo[d]imidazole-2-one]
- IC50 [1]: 34 nM
- IC50 [2]: > 10000 nM

SMILES: Cn1c(=O)n(Cc2ccc(-c3nnc(C(F)F)o3)cn2)c2cc(F)c(-c3ccc(C(F)(F)F)cc3)cc21 [Compound 167, 1-((5-(5-(difluoromethyl)-1,3,4-oxadiazole-2-yl)pyridine-2-yl)methyl)-6-fluoro-3-methy 1-5-(4-(trifluoromethyl)phenyl)-1,3-dihydro-2H-benzo[d]imidazole-2-one]
- IC50 [1]: 138 nM
- IC50 [2]: > 10000 nM

SMILES: Cn1c(=O)n(Cc2ccc(-c3nnc(C(F)F)o3)cn2)c2cc(F)c(-c3ccoc3)cc21 [Compound 168, 1-((5-(5-(difluoromethyl)-1,3,4-oxadiazole-2-yl)pyridine-2-yl)methyl)-6-fluoro-5-(furan-3-yl)-3-methyl-1,3-dihydro-2H-benzo[d]imidazole-2-one]
- IC50 [1]: 40 nM
- IC50 [2]: > 10000 nM

SMILES: Cn1c(=O)n(Cc2ccc(-c3nnc(C(F)F)o3)cc2F)c2cc(F)c(-c3cccnc3)cc21 [Compound 169, 1-(4-(5-(difluoromethyl)-1,3,4-oxadiazole-2-yl)-2-fluorobenzyl)-6-fluoro-3-methyl-5-(pyridine-3-yl)-1,3-dihydro-2H-benzo[d]imidazole-2-one]
- IC50 [1]: 21 nM
- IC50 [2]: > 10000 nM

SMILES: Cc1ccc(-c2cc3c(cc2F)n(Cc2ccc(-c4nnc(C(F)F)o4)cc2F)c(=O)n3C)o1 [Compound 170, 1-(4-(5-(difluoromethyl)-1,3,4-oxadiazole-2-yl)-2-fluorobenzyl)-6-fluoro-3-methyl-5-(5-methylfuran-2-yl)-1,3-dihydro-2H-benzo[d]imidazole-2-one]
- IC50 [1]: 211 nM
- IC50 [2]: > 10000 nM

SMILES: CC(=O)N1CCC(n2c(=O)n(Cc3ccc(-c4nnc(C(F)F)o4)cn3)c3c(F)cccc32)CC1 [Compound 171, 1-(1-acetylpiperidine-4-yl)-3-((5-(5-(difluoromethyl)-1,3,4-oxadiazole-2-yl)pyridine-2-yl)methyl)-4-fluoro-1,3-dihydro-2H-benzo[d]imidazole-2-one]
- IC50 [1]: 40 nM
- IC50 [2]: > 10000 nM

SMILES: CC(=O)N1CCC(n2c(=O)n(Cc3ccc(-c4nnc(C(F)F)o4)cc3)c3cc(F)ccc32)CC1 [Compound 172, 1-(1-acetylpiperidine-4-yl)-3-(4-(5-(difluoromethyl)-1,3,4-oxadiazole-2-yl)benzyl)-5-fluoro-1,3-dihydro-2H-benzo[d]imidazole-2-one]
- IC50 [1]: 34 nM
- IC50 [2]: > 10000 nM

From patent US20230092890A1, “1, 3, 4-Oxadiazole derivative compounds as histone deacetylase 6 inhibitor, and the pharmaceutical composition comprising the same” (Chong Kun Dang Pharmaceutical Corp., priority 2019, published 2023)
